“Also recorded” adds a separate entry of the source.
Experiments:
Type in all cases: in vivo, rat
[1] = Assay A: angiotensin II infusion model, urinary Na+/K+ ratio (natriuresis index); settings: Wistar rats, 1% NaCl, angiotensin II 25 ng/min sc; eplerenone 100 mpk
From the text: Electrolyte excretion. The ratio between daily urinary Na^+ excretion and urinary K^+ excretion (U Na^+/K^+ ratio) was used as an index for natriuresis. Urinary Na^+/K^+ ratio was similar in all groups before the start of the treatments, and increased similarly in all animals upon initiation of the high salt diet.

osteopontin = test: Assay B: serum osteopontin levels at 28 days; settings: NaCl 1% drinking rats with aldosterone and eplerenone
[2] = Urinary protein excretion in angiotensin II infused, captopril treated stroke prone spontaneously hypertensive rats; settings: captopril treated stroke prone spontaneously hypertensive rats (FIG. 35)
[3] = Survival and cerebral injury in stroke-prone spontaneously hypertensive rats
[4] = test system: Transforming growth factor beta 1 (TGFβ1); test: Assay C: TGFβ1 mRNA, TaqMan; settings: aldosterone+salt, 7, 14, 30 days
Method: The procedure of Assay B was expanded upon in a further study. […] Myocardial tissue from animals in each treatment group was examined after 7, 14, or 30 days of treatment.
Potassium chloride supplementation was added to the saline solution in order to prevent the potential hypokalemia associated with aldosterone excess.
Treatment At the time of the surgery, an Alzet 2002 osmotic minipump (Alza Corp., Palo Alto, Calif.) containing either vehicle (9% ethanol/87% propylene glycol/4% dH2O) or 1.0 mg/mL d-aldosterone (Sigma Chemical, St. Louis, Mo.) was inserted subcutaneously at the nape of the neck. Aldosterone was administered at a dose of 0.75 µg/hour. […]
The fluorogenic 5′-nuclease assay (TaqMan PCR) using Applied Biosystems' 7700 Sequence Detection System (Applied Biosystems, Foster City, Calif.) allowed for real time detection/quantitation of a specific gene by monitoring the increase in fluorescence of a gene-specific, dye-labeled oligonucleotide probe. […] When the probe was annealed to the target gene, fluorescence of 6FAM was prevented by the close proximity of TAMRA. The exonuclease activity of Taq polymerase released the dyes from the oligonucleotide probe by displacing the probe from the target sequence resulting in fluorescence excitation in direct proportion to the amount of target message present. […]

[5] = Assay B: interstitial collagen volume fraction and hydroxyproline concentration (myocardial fibrosis); settings: aldosterone/salt-treated uni-nephrectomized Sprague Dawley rats, 4 weeks
Method: Assay B: In Vivo Aldosterone Infusion Model Hearts were stained with hematoxylin&eosin and the collagen specific dye picro-sirius red and were analyzed for determination of interstitial collagen volume fraction and morphologic abnormalities (i.e. necrosis, vascular injury). Hydroxyproline concentration was measured in the frozen hearts.

| SMILES | Urinary Na+/K+ ratio (index for natriuresis) [1] | Circulating (serum) osteopontin levels (osteopontin) | Urinary protein excretion [2] | Survival ([3]; stroke-prone spontaneously hypertensive rats (FIG. 37)) | Cerebral injury ([3]; stroke-prone spontaneously hypertensive rats (FIGS. 37, 38)) | TGF-β mRNA levels [4] | Myocardial fibrosis (interstitial collagen volume fraction, hydroxyproline concentration) [5] |
| --- | --- | --- | --- | --- | --- | --- | --- |
| COC(=O)[C@@H]1CC2=CC(=O)CC[C@]2(C)[C@@]23O[C@@H]2C[C@@]2(C)[C@@H](CC[C@@]24CCC(=O)O4)[C@H]13 [eplerenone] | did not produce a significant diuretic or natriuretic effect | marked decrease in circulating osteopontin levels | inhibition of increased urinary protein excretion | increased survival | reduced cerebral injury; also recorded: decrease in cerebral injury | – | – |
| C[C@]12CCC(=O)C=C1CC[C@@H]1[C@@H]2[C@@H](O)C[C@]2(C=O)[C@@H](C(=O)CO)CC[C@@H]12 [aldosterone] | – | – | – | – | – | not upregulated at any of the time points examined | absence of myocardial fibrosis |

From patent US20040037806A1, “Aldosterone blocker therapy to prevent or treat inflammation-related disorders” (Pharmacia Corporation, priority 2002, published 2004)
